Experiments:
Format in all cases: in vivo
[1] = test system: ABUTH, Velvetleaf, Abutilon theophrasti, Medic.; experiment: Postemergence herbicidal evaluation (Example 147); conditions: rating scale 0-9, two to three weeks after treatment
Procedure: (§1) Seedling plants were grown in jiffy flats for about two weeks. The test compounds were dispersed in 80/20 acetone/water mixtures containing 1.0% SUN-IT®II, a methylated seed oil, in sufficient quantities to provide the equivalent of about 0.016 to 0.032 kg per hectare of active compound when applied to the plants through a spray nozzle operating at 40 psi for a predetermined time. After spraying, the plants were placed on greenhouse benches and were cared for in accordance with conventional greenhouse procedures. Approximately two to three weeks after treatment, the seedling plants were examined and rated according to the rating scale (0-9) set forth below. Where more than one test is involved for a given compound, the data are averaged. [table] The scale is based upon a visual observation of plant stand, vigor, malformation, size, chlorosis and overall plant appearance as compared with a control. Plant species employed in these evaluations are reported by header abbreviation, common name and scientific name. [table]

[2] = test system: ALOMY, Blackgrass, Alopecurus myosuroides; experiment: Postemergence herbicidal evaluation (Example 147); conditions: rating scale 0-9, two to three weeks after treatment
Procedure: as §1

[3] = test system: AMBEL, Ragweed, Common, Ambrosia artemiisifolia, L.; experiment: Postemergence herbicidal evaluation (Example 147); conditions: rating scale 0-9, two to three weeks after treatment
Procedure: as §1

[4] = test system: CHEAL, Lambsquarters, Chenopodium album, L. Common; experiment: Postemergence herbicidal evaluation (Example 147); conditions: rating scale 0-9, two to three weeks after treatment
Procedure: as §1

[5] = test system: DIGSA, Crabgrass, (Hairy) L, Digitaria sanguinalis, (L)Scop; experiment: Postemergence herbicidal evaluation (Example 147); conditions: rating scale 0-9, two to three weeks after treatment
Procedure: as §1

[6] = test system: ECHCG, Barnyardgrass, Echinochloa crusgalli, (L.)Beau; experiment: Postemergence herbicidal evaluation (Example 147); conditions: rating scale 0-9, two to three weeks after treatment
Procedure: as §1

[7] = test system: GLXMA, Soybean, Glycine max, (L.) Merr.; experiment: Postemergence herbicidal evaluation (Example 147); conditions: rating scale 0-9, two to three weeks after treatment
Procedure: as §1

[8] = test system: IPOHE, Morningglory, Ivyleaf, Ipomoea hederacea, (L)Jacq.; experiment: Postemergence herbicidal evaluation (Example 147); conditions: rating scale 0-9, two to three weeks after treatment
Procedure: as §1

[9] = test system: SETVI, Green foxtail, Setaria viridis, (L.)Beau; experiment: Postemergence herbicidal evaluation (Example 147); conditions: rating scale 0-9, two to three weeks after treatment
Procedure: as §1

[10] = test system: TRZAW, Winter wheat, Tritium Aestivum, L. (Winter); experiment: Postemergence herbicidal evaluation (Example 147); conditions: rating scale 0-9, two to three weeks after treatment
Procedure: as §1

[11] = test system: XANST, Cocklebur, Xanthium strumariam; experiment: Postemergence herbicidal evaluation (Example 147); conditions: rating scale 0-9, two to three weeks after treatment
Procedure: as §1

[12] = test system: ZEAMX, Field corn, Zea mays L.; experiment: Postemergence herbicidal evaluation (Example 147); conditions: rating scale 0-9, two to three weeks after treatment
Procedure: as §1

[13] = test system: ABUTH, Velvetleaf, Abutilon theophrasti, Medic.; experiment: Preemergence herbicidal evaluation (Example 148); conditions: rating scale 0-9, two to four weeks after treatment
Procedure: (§2) The scale is based upon a visual observation of plant stand, vigor, malformation, size, chlorosis and overall plant appearance as compared with a control.
(§3) The herbicidal activity of the compounds of the present invention was evaluated by the following tests wherein the seeds of a variety of monocotyledonous and dicotyledonous plants were separately mixed with potting soil and planted on top of approximately one inch of soil in separate pint cups. After planting, the cups were sprayed with the selected aqueous acetone solution containing test compound in sufficient quantity to provide the equivalent of about 0.125 to 0.250 kg per hectare of test compound per cup. The treated cups were then placed on greenhouse benches, watered and cared for in accordance with conventional greenhouse procedures. From two to four weeks after treatment, the tests were terminated and each cup was examined and rated according to the rating system provided in Example 94. When more than one test was performed for a given compound, the data were averaged.

[14] = test system: ALOMY, Blackgrass, Alopecurus myosuroides; experiment: Preemergence herbicidal evaluation (Example 148); conditions: rating scale 0-9, two to four weeks after treatment
Procedure: as §2, §3

[15] = test system: AMBEL, Ragweed, Common, Ambrosia artemiisifolia, L.; experiment: Preemergence herbicidal evaluation (Example 148); conditions: rating scale 0-9, two to four weeks after treatment
Procedure: as §2, §3

[16] = test system: CHEAL, Lambsquarters, Chenopodium album, L. Common; experiment: Preemergence herbicidal evaluation (Example 148); conditions: rating scale 0-9, two to four weeks after treatment
Procedure: as §2, §3

[17] = test system: DIGSA, Crabgrass, (Hairy) L, Digitaria sanguinalis, (L)Scop; experiment: Preemergence herbicidal evaluation (Example 148); conditions: rating scale 0-9, two to four weeks after treatment
Procedure: as §2, §3

[18] = test system: ECHCG, Barnyardgrass, Echinochloa crusgalli, (L.)Beau; experiment: Preemergence herbicidal evaluation (Example 148); conditions: rating scale 0-9, two to four weeks after treatment
Procedure: as §2, §3

[19] = test system: GLXMA, Soybean, Glycine max, (L.) Merr.; experiment: Preemergence herbicidal evaluation (Example 148); conditions: rating scale 0-9, two to four weeks after treatment
Procedure: as §2, §3

[20] = test system: IPOHE, Morningglory, Ivyleaf, Ipomoea hederacea, (L)Jacq.; experiment: Preemergence herbicidal evaluation (Example 148); conditions: rating scale 0-9, two to four weeks after treatment
Procedure: as §2, §3

[21] = test system: SETVI, Green foxtail, Setaria viridis, (L.)Beau; experiment: Preemergence herbicidal evaluation (Example 148); conditions: rating scale 0-9, two to four weeks after treatment
Procedure: as §2, §3

[22] = test system: TRZAW, Winter wheat, Tritium Aestivum, L. (Winter); experiment: Preemergence herbicidal evaluation (Example 148); conditions: rating scale 0-9, two to four weeks after treatment
Procedure: as §2, §3

[23] = test system: ZEAMX, Field corn, Zea mays L.; experiment: Preemergence herbicidal evaluation (Example 148); conditions: rating scale 0-9, two to four weeks after treatment
Procedure: as §2, §3

For `CCCNS(=O)(=O)NC(=O)c1cc(-n2c(=O)cc(C(F)(F)F)n(C)c2=O)c(F)cc1Cl` [Example 63], the “Postemergence herbicidal rating ABUTH” value ([1]; rate 0.016 kg/ha) was 9.0, the “Postemergence herbicidal rating ABUTH” value ([1]; rate 0.032 kg/ha) was 9.0 and the “Postemergence herbicidal rating ALMOY” value ([2]; rate 0.016 kg/ha) was 2.0. For the same compound, the “Postemergence herbicidal rating ALMOY” value ([2]; rate 0.032 kg/ha) was 2.0, the “Postemergence herbicidal rating AMBEL” value ([3]; rate 0.016 kg/ha) was 9.0 and the “Postemergence herbicidal rating AMBEL” value ([3]; rate 0.032 kg/ha) was 9.0. The “Postemergence herbicidal rating CHEAL” value ([4]; rate 0.016 kg/ha) was 7.0, the “Postemergence herbicidal rating CHEAL” value ([4]; rate 0.032 kg/ha) was 9.0 and the “Postemergence herbicidal rating DIGSA” value ([5]; rate 0.016 kg/ha) was 4.0. The “Postemergence herbicidal rating DIGSA” value ([5]; rate 0.032 kg/ha) was 4.0, the “Postemergence herbicidal rating ECHCG” value ([6]; rate 0.016 kg/ha) was 4.0 and the “Postemergence herbicidal rating ECHCG” value ([6]; rate 0.032 kg/ha) was 6.0. The “Postemergence herbicidal rating GLXMA” value ([7]; rate 0.016 kg/ha) was 8.0, the “Postemergence herbicidal rating GLXMA” value ([7]; rate 0.032 kg/ha) was 8.0 and the “Postemergence herbicidal rating IPOHE” value ([8]; rate 0.016 kg/ha) was 9.0. The “Postemergence herbicidal rating IPOHE” value ([8]; rate 0.032 kg/ha) was 9.0, the “Postemergence herbicidal rating SETVI” value ([9]; rate 0.016 kg/ha) was 7.0 and the “Postemergence herbicidal rating SETVI” value ([9]; rate 0.032 kg/ha) was 9.0. The “Postemergence herbicidal rating TRZAW” value ([10]; rate 0.016 kg/ha) was 6.0, the “Postemergence herbicidal rating TRZAW” value ([10]; rate 0.032 kg/ha) was 7.0 and the “Postemergence herbicidal rating XANST” value ([11]; rate 0.016 kg/ha) was 9.0. The “Postemergence herbicidal rating XANST” value ([11]; rate 0.032 kg/ha) was 9.0, the “Postemergence herbicidal rating ZEAMX” value ([12]; rate 0.016 kg/ha) was 7.0 and the “Postemergence herbicidal rating ZEAMX” value ([12]; rate 0.032 kg/ha) was 8.0. For the same compound, the “Preemergence herbicidal rating ABUTH” value ([13]; rate 0.125 kg/ha) was 9.0, the “Preemergence herbicidal rating ABUTH” value ([13]; rate 0.25 kg/ha) was 9.0 and the “Preemergence herbicidal rating ALMOY” value ([14]; rate 0.125 kg/ha) was 0.0. For the same compound, the “Preemergence herbicidal rating ALMOY” value ([14]; rate 0.25 kg/ha) was 0.0, the “Preemergence herbicidal rating AMBEL” value ([15]; rate 0.125 kg/ha) was 9.0 and the “Preemergence herbicidal rating AMBEL” value ([15]; rate 0.25 kg/ha) was 9.0. For the same compound, the “Preemergence herbicidal rating CHEAL” value ([16]; rate 0.125 kg/ha) was 9.0, the “Preemergence herbicidal rating CHEAL” value ([16]; rate 0.25 kg/ha) was 9.0 and the “Preemergence herbicidal rating DIGSA” value ([17]; rate 0.125 kg/ha) was 3.0. The “Preemergence herbicidal rating DIGSA” value ([17]; rate 0.25 kg/ha) was 8.0, the “Preemergence herbicidal rating ECHCG” value ([18]; rate 0.125 kg/ha) was 4.0 and the “Preemergence herbicidal rating ECHCG” value ([18]; rate 0.25 kg/ha) was 9.0. The “Preemergence herbicidal rating GLXMA” value ([19]; rate 0.125 kg/ha) was 1.0, the “Preemergence herbicidal rating GLXMA” value ([19]; rate 0.25 kg/ha) was 5.0 and the “Preemergence herbicidal rating IPOHE” value ([20]; rate 0.125 kg/ha) was 9.0. The “Preemergence herbicidal rating IPOHE” value ([20]; rate 0.25 kg/ha) was 9.0, the “Preemergence herbicidal rating SETVI” value ([21]; rate 0.125 kg/ha) was 4.0 and the “Preemergence herbicidal rating SETVI” value ([21]; rate 0.25 kg/ha) was 8.0. For the same compound, the “Preemergence herbicidal rating TRZAW” value ([22]; rate 0.125 kg/ha) was 0.0, the “Preemergence herbicidal rating TRZAW” value ([22]; rate 0.25 kg/ha) was 0.0 and the “Preemergence herbicidal rating ZEAMX” value ([23]; rate 0.125 kg/ha) was 0.0. The “Preemergence herbicidal rating ZEAMX” value ([23]; rate 0.25 kg/ha) was 0.0.

Source: patent US6689773B2, “Uracil substituted phenyl sulfamoyl carboxamides” (BASF Aktiengesellschaft, priority 2000, dated 2004)
